Reference: article PMC5698177 (Nature chemical biology, 2017)

Test system: chPylRS
Assay: aminoacylation of […]-labeled tRNA
Format: biochemical, Methanosarcina mazei; Methanosarcina barkeri
Conditions: read-out: KM (mM), ncAA; M. mazei tRNA(Pyl) transcript, 10 mM ATP, 10 mM MgCl2, pH 7.2, 37 °C

Compound | Km [mM]
CC(C)(C)OC(=O)NCCCC[C@H](N)C(=O)O [compound 12, BocK] | 2.91 ± 0.1
C[C@@H]1CC=N[C@H]1C(=O)NCCCC[C@H](N)C(=O)O [compound 1, Pyl] | 0.0076 ± 0.0002
